Measurements published in US10752640B2, “Compounds active towards bromodomains” (NUEVOLUTION A/S, priority 2014, dated 2020).

The compounds below were run against BRD4 protein (Homo sapiens, UniProt O60885) (assay: FRET assay, half maximal inhibitory concentration (IC50)). Settings: BRD4 protein 50 nM, Biotin-H4KAc4 peptide 12.5 nM; A Further List of Classification.
Type: binding
How it was run: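 Acetylated histone H4 peptide binding (biotin-H4KAc4, 12.5 nM final) to BRD4 (50 nM final) detected by TR-FRET between streptavidin cryptate (2.4 nM) and GST-XL665 antibody (10 nM) in KF/BSA. Buffer: HEPES pH 7.5, NaCl, CHAPS. Compound dilutions from 50 μM in 12.5% DMSO were preincubated with protein for 30 min. Variable-slope IC50.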

IC50 [nM]	Structure (SMILES)
200 to 500	Cc1cc(O)nc2ccc(NC(=O)c3cc(N4C(=O)CCC4=O)ccc3N3CCOCC3)cc12 [S14, 5-(2,5-dioxopyrrolidin-1-yl)-N-(2-hydroxy-4-methyl-6-quinolyl)-2-morpholino-benzamide]
< 200	COC1CCN(Cc2ccc(N3CCCC3)c(C(=O)Nc3ccc4nc(O)cc(C)c4c3)c2)C1 (stereo not shown) [S88, N-(2-hydroxy-4-methyl-6-quinolyl)-5-[(3-methoxypyrrolidin-1-yl)methyl]-2-pyrrolidin-1-yl-benzamide]
< 200	O=C(Nc1ccc2[nH]c(=O)cc(O)c2c1)c1cc(S(=O)(=O)N2CCOCC2)ccc1N1CCOCC1 [S35, N-(4-hydroxy-2-oxo-1H-quinolin-6-yl)-2-morpholino-5-morpholinosulfonyl-benzamide]
< 200	CN1Cc2cc(NC(=O)c3cc(S(=O)(=O)N(C)C)ccc3N3CCOCC3)ccc2NC1=O [S39, 5-(dimethylsulfamoyl)-N-(3-methyl-2-oxo-1,4-dihydroquinazolin-6-yl)-2-morpholino-benzamide]
< 200	Cc1cc(O)nc2ccc(NC(=O)c3cc(S(=O)(=O)N(C)C)ccc3N3CCC(c4ccccc4)C3)cc12 (stereo not shown) [S51, 5-(dimethylsulfamoyl)-N-(2-hydroxy-4-methyl-6-quinolyl)-2-(3-phenylpyrrolidin-1-yl)benzamide]
500 to 1000	Cc1cc(O)nc2ccc(NC(=O)c3cc([N+](=O)[O-])cnc3N3CCCCC3C)cc12 (stereo not shown) [S74, N-(2-hydroxy-4-methyl-6-quinolyl)-2-(2-methyl-1-piperidyl)-5-nitro-pyridine-3-carboxamide]
> 10000	Cc1cc(O)nc2ccc(NC(=O)c3cccc(S(=O)(=O)NCC(N)=O)c3)cc12 [S26, 3-[(2-amino-2-oxo-ethyl)sulfamoyl]-N-(2-hydroxy-4-methyl-6-quinolyl)benzamide]
< 200	Cc1cc(O)nc2ccc(NC(=O)c3cc(S(=O)(=O)N(C)C)ccc3N3CCC(F)C3)cc12 (stereo not shown) [S42, 5-(dimethylsulfamoyl)-2-(3-fluoropyrrolidin-1-yl)-N-(2-hydroxy-4-methyl-6-quinolyl)benzamide]

Same assay, conditions: BRD4 protein 50 nM, Biotin-H4KAc4 peptide 12.5 nM; List of Classification

IC50 [nM]	Structure (SMILES)
< 200	Cc1cc(O)nc2ccc(NC(=O)c3ccncc3N3CCCC3)cc12 [Compound-95, N-(2-hydroxy-4-methyl-6-quinolyl)-3-pyrrolidin-1-yl-pyridine-4-carboxamide]
< 200	Cc1cc(O)nc2ccc(NC(=O)c3cc(C#N)ncc3N3CCC(F)C3)cc12 (stereo not shown) [Compound-115, 2-cyano-5-(3-fluoropyrrolidin-1-yl)-N-(2-hydroxy-4-methylquinolin-6-yl) isonicotinamide]
500 to 1000	Cc1cc(O)nc2ccc(NC(=O)c3cc(C#N)cnc3N3CCOCC3)cc12 [Compound-183, 5-cyano-N-(2-hydroxy-4-methylquinolin-6-yl)-2-morpholinonicotinamide]
< 200	Cc1cc(O)nc2ccc(NC(=O)c3cc(C4(N5CCOCC5)CC4)ccc3N3CCCC3CN(C)C)cc12 (stereo not shown) [Compound-114, 2-(2-((dimethylamino)methyl)pyrrolidin-1-yl)-N-(2-hydroxy-4-methylquinolin-6-yl)-5-(1-morpholinocyclopropyl) benzamide]
< 200	CN(C)S(=O)(=O)c1ccc(N2CCCC2)c(C(=O)Nc2cc(F)c3c(c2)C(C)(C)CC(=O)N3)c1 [Compound-106, 5-(dimethylsulfamoyl)-N-(8-fluoro-4,4-dimethyl-2-oxo-1,3-dihydroquinolin-6-yl)-2-pyrrolidin-1-yl-benzamide]
> 10000	Cc1cc(O)nc2ccc(NS(=O)(=O)c3cc(S(N)(=O)=O)ccc3N3CCOCC3)cc12 [Compound-80, N3-(2-hydroxy-4-methyl-6-quinolyl)-4-morpholino-benzene-1,3-disulfonamide]
> 10000	Cc1cc(O)nc2ccc(NS(=O)(=O)c3cc(N)ccc3N3CCOCC3)cc12 [Compound-77, 5-amino-N-(2-hydroxy-4-methyl-6-quinolyl)-2-morpholino-benzenesulfonamide]
< 200	Cc1cc(O)nc2ccc(NC(=O)c3cc(-c4cnn(C)c4)cnc3N3CCOCC3)cc12 [Compound-175, N-(2-hydroxy-4-methylquinolin-6-yl)-5-(1-methyl-1H-pyrazol-4-yl)-2-morpholinonicotinamide]
< 200	COc1cc(NC(=O)c2cc(S(=O)(=O)N(C)C)ccc2N2CCCC2)cc2c(C)cc(O)nc12 [Compound-108, 5-(dimethylsulfamoyl)-N-(2-hydroxy-8-methoxy-4-methyl-6-quinolyl)-2-pyrrolidin-1-yl-benzamide]
< 200	Cc1cc(O)nc2ccc(NC(=O)c3cc(S(=O)(=O)N4CCOCC4)ccc3N3CCCC3)cc12 [Compound-74, N-(2-hydroxy-4-methyl-6-quinolyl)-5-morpholinosulfonyl-2-pyrrolidin-1-yl-benzamide]
200 to 500	Cc1cc(O)nc2ccc(NC(=O)c3cc(C(N)=O)ccc3N3CCOCC3)cc12 [Compound-12, N3-(2-hydroxy-4-methyl-6-quinolyl)-4-morpholino-benzene-1,3-dicarboxamide]
< 200	Cc1cc(O)nc2ccc(NC(=O)c3cc(S(=O)(=O)N4CC(N(C)C)C4)ccc3N3CCOCC3)cc12 [Compound-7, 5-[3-(dimethylamino)azetidin-1-yl]sulfonyl-N-(2-hydroxy-4-methyl-6-quinolyl)-2-morpholino-benzamide]
< 200	Cc1cc2nc(O)cc(C)c2cc1NC(=O)c1cc(-c2c(C)noc2C)cnc1N1CCOCC1 [Compound-188, 5-(3,5-dimethylisoxazol-4-yl)-N-(2-hydroxy-4,7-dimethylquinolin-6-yl)-2-morpholinonicotinamide]
< 200	Cc1cc(O)nc2ccc(NC(=O)c3cc(S(=O)(=O)N4CC(N)C4)ccc3N3CCOCC3)cc12 [Compound-8, 1-(3-(2-hydroxy-4-methylquinolin-6-ylcarbamoyl)-4-morpholinophenylsulfonyl) azetidin-3-aminium 2,2,2-trifluoroacetate]
< 200	Cc1cc(O)nc2c(C)cc(NC(=O)c3cc(-c4ccoc4)cnc3N3CCOCC3)cc12 [Compound-179, 5-(furan-3-yl)-N-(2-hydroxy-4,8-dimethylquinolin-6-yl)-2-morpholinonicotinamide]
< 200	Cc1cc2nc(O)cc(C)c2cc1NC(=O)c1cc(-c2cnn(C)c2)ccc1N1CCOCC1 [Compound-154, N-(2-hydroxy-4,7-dimethyl-6-quinolyl)-5-(1-methylpyrazol-4-yl)-2-morpholino-benzamide]
500 to 1000	COc1cc(O)nc2ccc(NC(=O)c3cccnc3N3CCOCC3)cc12 [Compound-149, N-(2-hydroxy-4-methoxy-6-quinolyl)-2-morpholino-pyridine-3-carboxamide]
< 200	CC1CC(=O)Nc2ccc(NC(=O)c3cc(S(=O)(=O)N(C)C)ccc3N3CCCC3)cc21 (stereo not shown) [Compound-102, 5-(dimethylsulfamoyl)-N-(4-methyl-2-oxo-3,4-dihydro-1H-quinolin-6-yl)-2-pyrrolidin-1-yl-benzamide]
< 200	Cc1cc(O)nc2ccc(NC(=O)c3cc(C(C)O)ccc3N3CCOCC3)cc12 (stereo not shown) [Compound-168, N-(2-hydroxy-4-methylquinolin-6-yl)-5-(1-hydroxyethyl)-2-morpholinobenzamide]
< 200	Cc1cc(O)nc2ccc(NC(=O)c3cc(CN4CCNCC4)ccc3N3CCCC3)cc12 [Compound-2, N-(2-hydroxy-4-methylquinolin-6-yl)-5-(piperazin-1-ylmethyl)-2-(pyrrolidin-1-yl)benzamide]
